Source: publication PMC3804063 (Journal of medicinal chemistry, 2013)
Where “and” joins values, the source holds several entries; their conditions need not be identical. Identical values can stand only once. Entries after “also recorded” stand apart in the source; their conditions may differ.

Key:
[1] = target: HEK293 cells stably expressing CB2 (Homo sapiens, UniProt P34972); type: cell-based; details: 1 µM compound
human CB2 receptors = human CB2 receptors (Homo sapiens, UniProt P34972); type: binding; details: ratio of Ki to Ki of 1
[2] = test system: CB2 receptor-transfected Chinese hamster cells; details: cited from earlier work
CB2 S4.53(161)A mutation = details: cited from earlier work
CB2 W5.43(194)Y mutation = details: cited from earlier work
CB2 S4.57(165)A mutation = details: cited from earlier work
CB2 W5.43A/F mutations = details: suggesting a misfolded protein; cited from earlier work
CB1 S7.39A mutation = details: cited from earlier work

Chain of HEK293 cells stably expressing CB2 (P34972 whole entry): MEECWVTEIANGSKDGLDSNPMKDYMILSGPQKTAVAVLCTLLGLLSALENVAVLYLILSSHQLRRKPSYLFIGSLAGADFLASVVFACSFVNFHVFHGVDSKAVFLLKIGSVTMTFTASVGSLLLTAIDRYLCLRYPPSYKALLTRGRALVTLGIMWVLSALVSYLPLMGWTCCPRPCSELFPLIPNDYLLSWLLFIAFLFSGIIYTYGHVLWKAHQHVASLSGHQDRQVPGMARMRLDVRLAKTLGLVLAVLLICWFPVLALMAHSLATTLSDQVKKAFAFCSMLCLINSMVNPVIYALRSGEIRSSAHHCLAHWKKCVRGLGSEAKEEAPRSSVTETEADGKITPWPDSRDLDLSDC
Chain of human CB2 receptors (P34972 whole entry): as above

Structure (SMILES) | antagonism of CP55940 effect in the cAMP assay [1] | fold loss of CB2 affinity compared to 1 (human CB2 receptors) | other results
Cc1ccc(Cn2cc(/C=C/[C@@H]3C(C)(C)[C@@H]4CC[C@@]3(C)C4)cc2-c2ccc(Cl)c(C)c2)cc1 [Compound 4, 5-(4-Chloro-3-methylphenyl)-1-[(4-methylphenyl)methyl]-3-[(E)-2-[(1S,2S,4R)-1,3,3-trimethylbicyclo[2.2.1]heptan-2-yl]ethenyl]-1H-pyrrole] | lack antagonist properties | 547 fold | 
Cc1ccc(Cn2cc(C(=O)N[C@@H]3C(C)(C)[C@@H]4CC[C@@]3(C)C4)cc2-c2ccc(Cl)c(C)c2)cc1 [Compound 3, 5-(4-Chloro-3-methyl-phenyl)-1-(4-methyl-benzyl)-1H-pyrrole-3-carboxylic acid (1,3,3-trimethyl-bicyclo[2.2.1]hept-2-yl)-amide] | more potent CB2 antagonist than 1; also recorded: antagonize the cAMP effects of CP55940 | 7 fold and 6.8 fold | 
Cc1ccc(Cn2nc(C(=O)N[C@@H]3C[C@@H]4CC[C@@]3(C)C4(C)C)cc2-c2ccc(Cl)c(C)c2)cc1 [Compound 5, 5-(4-Chloro-3-methylphenyl)-1-[(4-methylphenyl)methyl]-N-[(1S,2R,4S)-1,7,7-trimethylbicyclo[2.2.1]heptan-2-yl]-1H-pyrazole-3-carboxamide] | antagonize the cAMP effects of CP55940 | 13 fold | 
Cc1ccc(Cn2nc(/C=C/[C@@H]3C(C)(C)[C@@H]4CC[C@@]3(C)C4)cc2-c2ccc(Cl)c(C)c2)cc1 [Compound 2, 5-(4-Chloro-3-methylphenyl)-1-(4-methyl-benzyl)-3-[(E)-2-endo-(1,3,3-trimethyl-bicyclo[2.2.1]hept-2-yl)-vinyl]-1H-pyrazole] | lack antagonist properties | 236 fold | 
Cc1cc(-c2cc(C(=O)N[C@@H]3C(C)(C)[C@@H]4CC[C@@]3(C)C4)nn2-c2ccccc2)ccc1Cl [Compound 6, 5-(4-Chloro-3-methylphenyl)-1-phenyl-N-{1,3,3-trimethylbicyclo[2.2.1]heptan-2-yl}-1H-pyrazole-3-carboxamide] | no antagonism; also recorded: lack antagonist properties | 42 fold | 
Cc1ccc(Cn2nc(C(=O)N[C@@H]3C(C)(C)[C@@H]4CC[C@@]3(C)C4)cc2-c2ccc(Cl)c(C)c2)cc1 [Compound 1, N-[(1S)-endo-1,3,3-trimethylbicyclo[2.2.1]heptan2-yl]-5-(4-chloro-3-methylphenyl)-1-[(4-methylphenyl)methyl]-1H-pyrazole-3-carboxamide] | antagonize the effects of CP-55,940; also recorded: antagonize the cAMP effects of CP55940 |  | effect on high constitutive activity of CB2 [2]: inverse agonist; effect of mutation on binding (CB2 S4.53(161)A mutation): abolished the binding; effect of mutation on binding (CB2 W5.43(194)Y mutation): decrease in the binding; effect of mutation on binding (CB2 S4.57(165)A mutation): abolished the binding; effect of mutation on binding (CB2 W5.43A/F mutations): no detectable binding
CCCCCCC(C)(C)c1cc(O)c2c(c1)OC(C)(C)[C@@H]1CC=C(CO)C[C@@H]21 [HU210] |  |  | effect of mutation on binding (CB1 S7.39A mutation): reduction in binding
CCCCCCC(C)(C)c1ccc([C@@H]2C[C@H](O)CC[C@H]2CCCO)c(O)c1 [CP-55,940] |  |  | effect of mutation on binding (CB1 S7.39A mutation): loss of binding
